In publication PMC10946398 (Journal of Medicinal Chemistry, 2024):
Values joined by “and” are separate entries in the source; they are usually repeats but may differ in a detail not shown here. Identical values can stand only once.

Assay: parallel artificial membrane permeability assay
Type: in vitro ADME
Settings: 100 μM, phosphate buffer pH 6.4, 17 h, 37 °C, 150 rpm, triplicates

With CC(C)C[C@@H]1NC(=O)CN(C)C(=O)[C@H](Cc2ccccc2)NCc2ccc([nH]2)CNC1=O [14b, (5S,11S)-11-Benzyl-5-isobutyl-9-methyl-1^1H-3,6,9,12-tetraaza-1(2,5)-pyrrolacyclotridecaphane-4,7,10-trione] the “PAMPA −LogPe” value was 5.89 and 5.89 ± 0.08.
In the case of CC(C)C[C@@H]1NC(=O)[C@H](C)NC(=O)[C@H](Cc2ccccc2)NCC2=CC=C(CN(C)C1=O)O2 [19a, (5S,8S,11S)-11-Benzyl-5-isobutyl-3,8-dimethyl-3,6,9,12-tetraaza-1(2,5)-furanacyclotridecaphane-4,7,10-trione], the “PAMPA −LogPe” value is reported as 5.71 and 5.71 ± 0.03.
In the case of CC(C)C[C@@H]1NC(=O)CN(C)C(=O)[C@H](Cc2ccccc2)NCC2=CC=C(CNC1=O)O2 [18b, (5S,11S)-11-Benzyl-5-isobutyl-9-methyl-3,6,9,12-tetraaza-1(2,5)-furanacyclotridecaphane-4,7,10-trione], the “PAMPA −LogPe” value is reported as 5.88 and 5.88 ± 0.04.

In order of falling “PAMPA −LogPe” value:
1. CC(C)C[C@@H]1NC(=O)[C@H](C)NC(=O)[C@H](Cc2ccccc2)NCc2ccc([nH]2)CNC1=O [14a, (5S,8S,11S)-11-Benzyl-5-isobutyl-8-methyl-1^1H-3,6,9,12-tetraaza-1(2,5)-pyrrolacyclotridecaphane-4,7,10-trione, 1H-Benzo[d][1,2,3]triazol-1-ol]  7.72
2. CC(C)C[C@@H]1NC(=O)[C@H](C)N(C)C(=O)[C@H](Cc2ccccc2)NCc2cc(c[nH]2)CNC1=O [16d, (5S,8S,11S,Z)-11-Benzyl-5-isobutyl-8,9-dimethyl-1^1H-3,6,9,12-tetraaza-1(2,4)-pyrrolacyclotridecaphane-4,7,10-trione]  7.53
3. CC(C)C[C@@H]1NC(=O)CN(C)C(=O)[C@H](Cc2ccccc2)NCc2cc(c[nH]2)CNC1=O [16b, (5S,11S,Z)-11-Benzyl-5-isobutyl-9-dimethyl-1^1H-3,6,9,12-tetraaza-1(2,4)-pyrrolacyclotridecaphane-4,7,10-trione]  6.76
4. CC(C)C[C@@H]1NC(=O)[C@H](C)N(C)C(=O)[C@H](Cc2ccccc2)NCc2cc(cn2C)CNC1=O [17d, (5S,8S,11S,Z)-11-Benzyl-5-isobutyl-1^1,8,9-trimethyl-1^1H-3,6,9,12-tetraaza-1(2,4)-pyrrolacyclotridecaphane-4,7,10-trione]  6.61 ± 0.07
5. CC(C)C[C@@H]1NC(=O)[C@H](C)N(C)C(=O)[C@H](Cc2ccccc2)NCc2ccc(n2C)CNC1=O [15d, (5S,8S,11S)-11-Benzyl-5-isobutyl-1^1,8,9-trimethyl-1^1H-3,6,9,12-tetraaza-1(2,5)-pyrrolacyclotridecaphane-4,7,10-trione]  6.30
6. CC(C)C[C@@H]1NC(=O)CN(C)C(=O)[C@H](Cc2ccccc2)NCc2ccc(n2C)CNC1=O [15b, (5S,11S)-11-Benzyl-5-isobutyl-1^1,9-dimethyl-1^1H-3,6,9,12-tetraaza-1(2,5)-pyrrolacyclotridecaphane-4,7,10-trione]  5.93
7. CC(C)C[C@H]1C(=O)NCc2ccc([nH]2)CN[C@@H](Cc2ccccc2)C(=O)N[C@@H](C)C(=O)N1C [14c, (5S,8S,11S)-11-Benzyl-5-isobutyl-6,8-dimethyl-1^1H-3,6,9,12-tetraaza-1(2,5)-pyrrolacyclotridecaphane-4,7,10-trione, 1H-Benzo[d][1,2,3]triazol-1-ol]  5.12
8. CC(C)C[C@@H]1NC(=O)[C@H](C)NC(=O)[C@H](Cc2ccccc2)N(C)Cc2ccc([nH]2)CNC1=O [14e, (5S,8S,11S)-11-Benzyl-5-isobutyl-8,12-dimethyl-1^1H-3,6,9,12-tetraaza-1(2,5)-pyrrolacyclotridecaphane-4,7,10-trione, 1H-Benzo[d][1,2,3]triazol-1-ol]  5.11
9. CC(C)C[C@@H]1NC(=O)[C@H](C)N(C)C(=O)[C@H](Cc2ccccc2)NCc2ccc([nH]2)CNC1=O [14d, (5S,8S,11S)-11-Benzyl-5-isobutyl-8,9-dimethyl-1^1H-3,6,9,12-tetraaza-1(2,5)-pyrrolacyclotridecaphane-4,7,10-trione]  5.01
